Source: US8710064B2, “2-aryl-4-quinazolinones and their pharmaceutical compositions” (China Medical University, priority 2011, dated 2014)

Key:
U87 glioma cells = assay: trypan blue exclusion cell death assay, U87 glioma cells; type: cell-based, human; settings: 60 nM, at the 48th hour, p<0.05 versus control
Procedure: (§1) Cell viability was also determined by trypan-blue exclusion assay. Cells were seeded in 6-well plates (2×10^4/well) for trypan blue exclusion assay, and incubated for 24 hours at 37° C. Culture medium containing test compound or DMSO (0.006%) was added to each well, and cells were incubated at 37° C. At indicated time points (0, 24, 48, 72 and 96 hr), cells were suspended with 0.05% trypsin-EDTA, and stained with trypan-blue dye (0.4%) (Sigma). The cell viability was evaluated by the percentage of death relative to the total cell, and cell growth curve was determined by number of live cells relative to the total number of cells.
(§2) To investigate the glioma cell death induced by MJ-66, cell viability was assessed by trypan blue exclusion assay. C6 and U87 glioma cells treated with MJ-66 (30, 60, 90 nM) or DMSO (0.009%) for 0, 24, 48, 72 and 96 hours (hr) were observed under bright field microscope (FIG. 4A). The percentages of cell death and cell growth curve were determined by trypan blue assay followed by cell counting (mean±SEM, n=3). Relative to total cell number, trypan blue positive cells were defined as dead cells.

C6 glioma cells [1] = assay: G1 synchronized by Ara-C, flow cytometry; type: cell-based, rat; settings: 60 nM MJ-66 after 41.6 nM Ara-C 12 hours; at 12th and 24th hours
Procedure: At indicated time points (0, 6, 12 and 24 hr), >10^6 cells were collected and fixed in 70% ethanol over 1 hour at −20° C. After staining with PI as described, DNA content of ten thousand cells was analyzed by flow cytometry.
To investigate the influence of MJ-66 on normal glia such as human glia cell line SVGP12 and rat primary glia cells, cells were treated with different concentrations of MJ-66 in vitro (0.00625, 0.0125, 0.025, 0.05, 0.1 and 1 μM) for different time durations (0, 6, 12 and 24 hours) and the cell viability was assessed by MTS assay. Cells alone or treated with DMSO were used as control. […] However, most glia cells in animals are static and their proliferation rate is almost silent. Therefore, cytosine arabinoside (Ara-C), a DNA synthesis inhibitor, was further used to inhibit glioma cell proliferation and glioma cells were then treated with MJ-66 or DMSO as described in “General materials and methods”. Specifically, after C6 glioma cells were treated with 41.6 nM Ara-C for 12 hours, and then treated with solvent (DMSO) or 60 nM MJ-66 for 0, 6, 12 and 24 hours, the cell cycle distributions and DNA content of the cells were monitored by flow cytometry with propidium iodide staining C6 glioma cells treated with 41.6 nM Ara-C for 12 hours (12 hr) were detected by flow cytometry with propidium iodide staining as control.

rat primary glia cells = assay: MTS cell viability assay, rat primary glia cells; type: cell-based; settings: 0.00625-1 μM
Procedure: (§3) The human glioma cell lines U87, U251, T98G, U373, and rat glioma cell line RT2 provided by Dr. Michael Hsiao (Genomics Research Center, Academia Sinica, Taiwan) were cultured in Dulbecco's Modified Eagle medium (DMEM) (Caisson) supplemented with 10% fetal bovine serum (FBS) (Sigma-Aldrich), 2 mM L-glutamine (Caisson), 100 U/ml penicillin, and 100 μg/ml streptomycin (Caisson). The rat glioma C6 cell line provided by Dr. Shun-Fen Tzeng (National Cheng Kung University, Taiwan) was cultured in DMEM/F12 (Caisson) supplemented with 10% fetal bovine serum, 2 mM L-glutamine, 100 U/ml penicillin, and 100 μg/ml streptomycin. […] Cell proliferation was determined by MTS (tetrazolium compound, 3-(4,5-dimethylthiazol-2-yl)-5-(3-carboxymethoxyphenyl)-2-(4-sulfophenyl)-2H-tetrazolium) assay (Promega). […] The absorbance of soluble formazan was measured at 490 nm with microplate reader (Molecular device). The cell viability was determined by the percentage of the absorption relative to untreated control. […] To investigate the influence of MJ-66 on normal glia such as human glia cell line SVGP12 and rat primary glia cells, cells were treated with different concentrations of MJ-66 in vitro (0.00625, 0.0125, 0.025, 0.05, 0.1 and 1 μM) for different time durations (0, 6, 12 and 24 hours) and the cell viability was assessed by MTS assay. […]

[2] = test system: human glia cell line SVGP12; assay: MTS cell viability assay, normal glia cell line SVGP12; type: cell-based; settings: 0.00625-1 μM
Procedure: as §3

C6 glioma cells [3] = assay: trypan blue exclusion cell death assay, C6 glioma cells; type: cell-based, rat; settings: 60 nM, at the 72nd hour, p<0.05 versus control
Procedure: as §1, §2

## O=c1[nH]c(-c2cccc3ccccc23)nc2ccc(N3CCCC3)cc12 [Compound 23, 6-(Pyrrolidin-1-yl)-2-(naphthalen-1-yl)quinazolin-4-one]
U87 glioma cells
  percentage of dead cells, U87: significantly induced
C6 glioma cells [1]
  cell death of G1 arrest (Ara-C-treated) glioma cells: not induced cell death
Rat primary glia cells
  cell viability of rat glia cells: inhibited
[2]
  cell viability of SVGP12: inhibited
C6 glioma cells [3]
  percentage of dead cells, C6: significantly induced
